{
  "source": "paper PMC5218480",
  "about": "(PLoS ONE, 2017)",
  "test_system": "MV-4-11 cells",
  "experiment": "Gene expression microarray analysis (Affymetrix PrimeView) and GSEA",
  "type": "cell-based, human",
  "design": "RFU PODN (11730768_x_at) / Fold change /veh PODN (11730768_x_at) / RFU LINC00158 (11744669_a_at) / Fold change /veh LINC00158 (11744669_a_at) / RFU DUSP10 (11751237_a_at) / Fold change /veh DUSP10 (11751237_a_at) / RFU ID3 (11757404_x_at) / Fold change /veh ID3 (11757404_x_at) / RFU PLEKHG5 (11737974_s_at) / Fold change /veh PLEKHG5 (11737974_s_at) / RFU LRRC4B (11730491_at) / Fold change /veh LRRC4B (11730491_at) / RFU GIMAP4 (11747438_a_at) / Fold change /veh GIMAP4 (11747438_a_at) / RFU KRT8 (11758183_x_at) / Fold change /veh KRT8 (11758183_x_at) / RFU CNN1 (11734310_a_at) / Fold change /veh CNN1 (11734310_a_at) / RFU VPS37D (11726825_at) / Fold change /veh VPS37D (11726825_at) / RFU C10orf10 (11716522_x_at) / Fold change /veh C10orf10 (11716522_x_at) / RFU KIR2DL2 /// KIR2DL4 /// KIR2DL5A /// KIR2DL5B /// KIR2DS1 /// KIR2DS2 /// KIR2DS3 /// KIR2DS4 /// KIR3DL3 /// KIR3DL3 /// KIR3DS1 (11738374_at) / Fold change /veh KIR2DL2 /// KIR2DL4 /// KIR2DL5A /// KIR2DL5B /// KIR2DS1 /// KIR2DS2 /// KIR2DS3 /// KIR2DS4 /// KIR3DL3 /// KIR3DL3 /// KIR3DS1 (11738374_at) / RFU C1QL1 (11718748_at) / Fold change /veh C1QL1 (11718748_at) / RFU TMPRSS4 (11747572_a_at) / Fold change /veh TMPRSS4 (11747572_a_at) / RFU HAMP (11756126_x_at) / Fold change /veh HAMP (11756126_x_at) / RFU RNFT2 (11725882_a_at) / Fold change /veh RNFT2 (11725882_a_at) / RFU NR4A2 (11747474_a_at) / Fold change /veh NR4A2 (11747474_a_at) / RFU ABCC12 (11746883_a_at) / Fold change /veh ABCC12 (11746883_a_at) / RFU TMEM136 (11760407_x_at) / Fold change /veh TMEM136 (11760407_x_at) / RFU CLDN22 /// WWC2 (11732394_at) / Fold change /veh CLDN22 /// WWC2 (11732394_at) / RFU HLA-DPB1 (11760878_x_at) / Fold change /veh HLA-DPB1 (11760878_x_at) / RFU SPINT1 (11716480_a_at) / Fold change /veh SPINT1 (11716480_a_at) / RFU GAP43 (11754022_s_at) / Fold change /veh GAP43 (11754022_s_at) / RFU A4GNT (11735810_at) / Fold change /veh A4GNT (11735810_at) / RFU PRB3 (11715151_x_at) / Fold change /veh PRB3 (11715151_x_at) / RFU TUBB4B (11761932_at) / Fold change /veh TUBB4B (11761932_at) / RFU CAPN14 (11732068_a_at) / Fold change /veh CAPN14 (11732068_a_at) / RFU TMCC2 (11721928_a_at) / Fold change /veh TMCC2 (11721928_a_at) / RFU IRGQ (11745062_a_at) / Fold change /veh IRGQ (11745062_a_at) / RFU FAM174B (11720279_a_at) / Fold change /veh FAM174B (11720279_a_at) / RFU TMPRSS4 (11748680_a_at) / Fold change /veh TMPRSS4 (11748680_a_at) / RFU FAM212B (11763350_a_at) / Fold change /veh FAM212B (11763350_a_at) / RFU PLEKHG5 (11743358_a_at) / Fold change /veh PLEKHG5 (11743358_a_at) / RFU ZSCAN30 (11745921_a_at) / Fold change /veh ZSCAN30 (11745921_a_at) / RFU CMKLR1 (11741424_a_at) / Fold change /veh CMKLR1 (11741424_a_at) / RFU LOC101060620 /// MAPK8IP1 (11723275_at) / Fold change /veh LOC101060620 /// MAPK8IP1 (11723275_at) / RFU SPTSSB (11747773_x_at) / Fold change /veh SPTSSB (11747773_x_at) / RFU PRSS12 (11739890_at) / Fold change /veh PRSS12 (11739890_at) / RFU BIN1 (11741810_x_at) / Fold change /veh BIN1 (11741810_x_at) / RFU WNT11 (11732464_a_at) / Fold change /veh WNT11 (11732464_a_at) / RFU C10orf10 (11716521_a_at) / Fold change /veh C10orf10 (11716521_a_at) / RFU C5orf56 (11738089_at) / Fold change /veh C5orf56 (11738089_at) / RFU CYB561 (11721691_x_at) / Fold change /veh CYB561 (11721691_x_at) / RFU ANKRD19P (11752326_a_at) / Fold change /veh ANKRD19P (11752326_a_at) / RFU OR2T12 /// OR2T33 /// OR2T8 (11738714_s_at) / Fold change /veh OR2T12 /// OR2T33 /// OR2T8 (11738714_s_at) / RFU VCAN (11748164_a_at) / Fold change /veh VCAN (11748164_a_at) / RFU JSRP1 (11732532_at) / Fold change /veh JSRP1 (11732532_at) / RFU KRTAP10-11 (11738290_x_at) / Fold change /veh KRTAP10-11 (11738290_x_at) / RFU MYO3A (11730013_a_at) / Fold change /veh MYO3A (11730013_a_at) / RFU EBF3 (11725865_a_at) / Fold change /veh EBF3 (11725865_a_at) / RFU CAMK2N1 (11719241_x_at) / Fold change /veh CAMK2N1 (11719241_x_at) / RFU C5orf56 (11738088_a_at) / Fold change /veh C5orf56 (11738088_a_at) / RFU OLFML3 (11715873_a_at) / Fold change /veh OLFML3 (11715873_a_at) / RFU LOC100653217 /// NTM (11731650_a_at) / Fold change /veh LOC100653217 /// NTM (11731650_a_at) / RFU MAPK11 (11762145_a_at) / Fold change /veh MAPK11 (11762145_a_at) / RFU FIZ1 (11724087_x_at) / Fold change /veh FIZ1 (11724087_x_at) / RFU OASL (11726364_x_at) / Fold change /veh OASL (11726364_x_at) / RFU SOX15 (11748057_x_at) / Fold change /veh SOX15 (11748057_x_at) / RFU CD79A (11719716_a_at) / Fold change /veh CD79A (11719716_a_at) / RFU HIST1H1D (11736915_at) / Fold change /veh HIST1H1D (11736915_at) / RFU CASKIN2 (11723855_a_at) / Fold change /veh CASKIN2 (11723855_a_at) / RFU LOC730098 (11760151_x_at) / Fold change /veh LOC730098 (11760151_x_at) / RFU OR4N2 (11742367_at) / Fold change /veh OR4N2 (11742367_at) / RFU PRRT2 (11749266_a_at) / Fold change /veh PRRT2 (11749266_a_at) / RFU SNX32 (11753110_a_at) / Fold change /veh SNX32 (11753110_a_at) / RFU CDHR5 (11726645_a_at) / Fold change /veh CDHR5 (11726645_a_at) / RFU RCAN1 (11760418_a_at) / Fold change /veh RCAN1 (11760418_a_at) / RFU FAM167A (11723789_a_at) / Fold change /veh FAM167A (11723789_a_at) / RFU FAM26E (11764081_at) / Fold change /veh FAM26E (11764081_at) / RFU ISYNA1 (11749810_s_at) / Fold change /veh ISYNA1 (11749810_s_at) / RFU ACY1 (11761880_at) / Fold change /veh ACY1 (11761880_at) / RFU 11764098_at / Fold change /veh 11764098_at / RFU SAMD14 (11745864_x_at) / Fold change /veh SAMD14 (11745864_x_at) / RFU NPB (11741838_a_at) / Fold change /veh NPB (11741838_a_at) / RFU TMPRSS6 (11731388_a_at) / Fold change /veh TMPRSS6 (11731388_a_at) / RFU KRTAP10-2 (11738614_at) / Fold change /veh KRTAP10-2 (11738614_at) / RFU ARHGAP8 /// PRR5-ARHGAP8 (11727945_x_at) / Fold change /veh ARHGAP8 /// PRR5-ARHGAP8 (11727945_x_at) / RFU KRTAP5-7 /// NADSYN1 (11734609_at) / Fold change /veh KRTAP5-7 /// NADSYN1 (11734609_at) / RFU RASL12 (11751679_a_at) / Fold change /veh RASL12 (11751679_a_at) / RFU CDKN2B (11736163_a_at) / Fold change /veh CDKN2B (11736163_a_at) / RFU PRF1 (11729649_at) / Fold change /veh PRF1 (11729649_at) / RFU, ZNF638 /// ZNF638-IT1 / Fold change vs veh, ZNF638 /// ZNF638-IT1 / RFU, PANK3 / Fold change vs veh, PANK3 / RFU, SH3YL1 / Fold change vs veh, SH3YL1 / RFU, ZEB2 / Fold change vs veh, ZEB2 / RFU, NRIP1 / Fold change vs veh, NRIP1 / RFU, PTTG1IP / Fold change vs veh, PTTG1IP / RFU, CAPN2 / Fold change vs veh, CAPN2 / RFU, MED14 / Fold change vs veh, MED14 / RFU, SNORA58 / Fold change vs veh, SNORA58 / RFU, C1orf63 / Fold change vs veh, C1orf63 / RFU, LRRFIP1 / Fold change vs veh, LRRFIP1 / RFU, NDUFAF7 / Fold change vs veh, NDUFAF7 / RFU, SLC12A2 / Fold change vs veh, SLC12A2 / RFU, IBTK / Fold change vs veh, IBTK / RFU, ESF1 / Fold change vs veh, ESF1 / Fold change vs veh, TMEM50B / RFU, TAOK1 / Fold change vs veh, TAOK1 / RFU, ACBD3 / Fold change vs veh, ACBD3 / RFU, TMA16 / Fold change vs veh, TMA16 / RFU, RWDD3 / Fold change vs veh, RWDD3 / RFU, BCAT1 / Fold change vs veh, BCAT1 / RFU, EDEM3 / Fold change vs veh, EDEM3 / RFU, TMEM33 / Fold change vs veh, TMEM33 / RFU, WDR75 / Fold change vs veh, WDR75 / RFU, AHCTF1 / Fold change vs veh, AHCTF1 / RFU, TFRC / Fold change vs veh, TFRC / RFU, ZDHHC17 / Fold change vs veh, ZDHHC17 / RFU, NOM1 / Fold change vs veh, NOM1 / RFU, ARL8B / Fold change vs veh, ARL8B / RFU, ZBTB11 / Fold change vs veh, ZBTB11 / RFU, TAMM41 / Fold change vs veh, TAMM41 / RFU, KIAA1704 /// LOC100996395 / Fold change vs veh, KIAA1704 /// LOC100996395 / RFU, ING1 / Fold change vs veh, ING1 / RFU, TRMT61B / Fold change vs veh, TRMT61B / RFU, FUBP3 / Fold change vs veh, FUBP3 / RFU, TP53 / Fold change vs veh, TP53 / RFU, TNKS2 / Fold change vs veh, TNKS2 / RFU, ZFP14 / Fold change vs veh, ZFP14 / RFU, ACTR2 / Fold change vs veh, ACTR2 / RFU, PPP3R1 / Fold change vs veh, PPP3R1 / RFU, PIK3R1 / Fold change vs veh, PIK3R1 / RFU, HNRNPA1 / Fold change vs veh, HNRNPA1 / RFU, RNF170 / Fold change vs veh, RNF170 / RFU, ZNF28 / Fold change vs veh, ZNF28 / RFU, RNGTT / Fold change vs veh, RNGTT / RFU, OGT / Fold change vs veh, OGT / RFU, BRD1 / Fold change vs veh, BRD1 / RFU, MARS / Fold change vs veh, MARS / RFU, ZNF655 / Fold change vs veh, ZNF655 / RFU, FAHD1 / Fold change vs veh, FAHD1 / RFU, BDP1 / Fold change vs veh, BDP1 / RFU, LRRCC1 / Fold change vs veh, LRRCC1 / RFU, ARID1A / Fold change vs veh, ARID1A / RFU, ZNF146 / Fold change vs veh, ZNF146 / RFU, ZNF330 / Fold change vs veh, ZNF330 / RFU, GPN3 / Fold change vs veh, GPN3 / RFU, C9orf123 / Fold change vs veh, C9orf123 / RFU, N4BP2L2 / Fold change vs veh, N4BP2L2 / RFU, ARFIP1 / Fold change vs veh, ARFIP1 / RFU, FAM179B / Fold change vs veh, FAM179B / RFU, BCL10 / Fold change vs veh, BCL10 / RFU, UHRF1BP1L / Fold change vs veh, UHRF1BP1L / RFU, BET1 / Fold change vs veh, BET1 / RFU, CNOT2 / Fold change vs veh, CNOT2 / RFU, ZNF268 / Fold change vs veh, ZNF268 / Fold change vs veh, ZNF507 / RFU, DGCR2 / Fold change vs veh, DGCR2 / RFU, WDSUB1 / Fold change vs veh, WDSUB1 / Fold change vs veh, HSP90B1 /// MIR3652 / RFU, ADSS / Fold change vs veh, ADSS / RFU, GK / Fold change vs veh, GK / RFU, ZNF148 / Fold change vs veh, ZNF148 / RFU, TAF9 / Fold change vs veh, TAF9 / RFU, SLC1A5 / Fold change vs veh, SLC1A5 / RFU, SLMO2 / Fold change vs veh, SLMO2 / RFU, ABCC4 / Fold change vs veh, ABCC4 / RFU, LOC101060439 /// RAP1B / Fold change vs veh, LOC101060439 /// RAP1B / RFU, RFX7 / Fold change vs veh, RFX7 / RFU, GTPBP10 / Fold change vs veh, GTPBP10 / RFU, CNEP1R1 / Fold change vs veh, CNEP1R1 / RFU, BIVM-ERCC5 /// ERCC5 / Fold change vs veh, BIVM-ERCC5 /// ERCC5 / RFU, ILF3 / Fold change vs veh, ILF3 / RFU 11762660_at / Fold change /veh 11762660_at / RFU VCAN (11757783_s_at) / Fold change /veh VCAN (11757783_s_at) / RFU DDX43 (11728927_at) / Fold change /veh DDX43 (11728927_at) / RFU KRT8 (11758188_x_at) / Fold change /veh KRT8 (11758188_x_at) / RFU NKD1 (11759106_at) / Fold change /veh NKD1 (11759106_at) / RFU SRD5A1 (11742802_a_at) / Fold change /veh SRD5A1 (11742802_a_at) / RFU TPSAB1 /// TPSB2 (11721975_s_at) / Fold change /veh TPSAB1 /// TPSB2 (11721975_s_at) / RFU GSTM3 (11746129_a_at) / Fold change /veh GSTM3 (11746129_a_at) / RFU IL23R (11737362_x_at) / Fold change /veh IL23R (11737362_x_at) / RFU TMEM51 (11727254_a_at) / Fold change /veh TMEM51 (11727254_a_at) / RFU PIWIL2 (11732686_x_at) / Fold change /veh PIWIL2 (11732686_x_at) / RFU ORM1 (11744905_x_at) / Fold change /veh ORM1 (11744905_x_at) / RFU CCDC152 (11743942_at) / Fold change /veh CCDC152 (11743942_at) / RFU ECM1 (11717891_a_at) / Fold change /veh ECM1 (11717891_a_at) / RFU IL23R (11748794_a_at) / Fold change /veh IL23R (11748794_a_at) / RFU TNFAIP8L3 (11732012_x_at) / Fold change /veh TNFAIP8L3 (11732012_x_at) / RFU MBOAT4 (11741988_at) / Fold change /veh MBOAT4 (11741988_at) / RFU 11764193_at / Fold change /veh 11764193_at / RFU TMEM53 (11763286_at) / Fold change /veh TMEM53 (11763286_at) / RFU MAGEB2 (11727129_at) / Fold change /veh MAGEB2 (11727129_at) / RFU TMEM200A (11744735_a_at) / Fold change /veh TMEM200A (11744735_a_at) / RFU CCDC152 (11751479_a_at) / Fold change /veh CCDC152 (11751479_a_at) / RFU FAM211A (11726209_a_at) / Fold change /veh FAM211A (11726209_a_at) / RFU RGS16 (11746705_a_at) / Fold change /veh RGS16 (11746705_a_at) / RFU VCAN (11755009_s_at) / Fold change /veh VCAN (11755009_s_at) / RFU RHOB (11743442_s_at) / Fold change /veh RHOB (11743442_s_at) / RFU RGS16 (11720943_a_at) / Fold change /veh RGS16 (11720943_a_at) / RFU RGS16 (11720944_at) / Fold change /veh RGS16 (11720944_at) / RFU, VPS4B / Fold change vs veh, VPS4B / RFU, CREB1 / Fold change vs veh, CREB1 / RFU, DNAJC13 / Fold change vs veh, DNAJC13 / RFU, GNAQ / Fold change vs veh, GNAQ / RFU, CDK5R1 / Fold change vs veh, CDK5R1 / RFU, ZRANB3 / Fold change vs veh, ZRANB3 / RFU, CUL4A / Fold change vs veh, CUL4A / RFU, CCNY / Fold change vs veh, CCNY / RFU, UFL1 / Fold change vs veh, UFL1 / RFU, COG3 / Fold change vs veh, COG3 / RFU, DIAPH2 / Fold change vs veh, DIAPH2 / RFU, SKA2 / Fold change vs veh, SKA2 / RFU, AFF3 / Fold change vs veh, AFF3 / RFU, LMF1 / Fold change vs veh, LMF1 / RFU, IPO11 / Fold change vs veh, IPO11 / RFU, DFFB / Fold change vs veh, DFFB / RFU, FOXP1 / Fold change vs veh, FOXP1 / RFU, CARD8 / Fold change vs veh, CARD8 / RFU, STRN3 / Fold change vs veh, STRN3 / RFU, ADK / Fold change vs veh, ADK / RFU, RASSF2 / Fold change vs veh, RASSF2 / RFU, WIPF1 / Fold change vs veh, WIPF1 / RFU, LARP1B / Fold change vs veh, LARP1B / RFU, RASA1 / Fold change vs veh, RASA1 / RFU, RB1 / Fold change vs veh, RB1 / RFU, PPFIA1 / Fold change vs veh, PPFIA1 / RFU, MAT2A / Fold change vs veh, MAT2A / RFU, CCT5 / Fold change vs veh, CCT5 / RFU, WDR92 / Fold change vs veh, WDR92 / RFU, CUX1 / Fold change vs veh, CUX1 / RFU, TTC7A / Fold change vs veh, TTC7A / RFU, TMEM135 / Fold change vs veh, TMEM135 / RFU, DEPTOR / Fold change vs veh, DEPTOR / RFU, CPM / Fold change vs veh, CPM / RFU, DNAJB6 / Fold change vs veh, DNAJB6 / RFU, CACNA2D3 / Fold change vs veh, CACNA2D3 / RFU, DTX4 / Fold change vs veh, DTX4 / RFU, TFCP2 / Fold change vs veh, TFCP2 / RFU, GMCL1 /// GMCL1P1 / Fold change vs veh, GMCL1 /// GMCL1P1 / RFU, AEBP2 / Fold change vs veh, AEBP2 / RFU, SNHG1 /// SNORD22 /// SNORD25 /// SNORD26 /// SNORD27 /// SNORD28 /// SNORD29 /// SNORD31 / Fold change vs veh, SNHG1 /// SNORD22 /// SNORD25 /// SNORD26 /// SNORD27 /// SNORD28 /// SNORD29 /// SNORD31 / Fold change (Aza/veh), C12orf56 (ProbeSet 11735607_a_at) / Fold change (ACY-1035/veh), C12orf56 (ProbeSet 11735607_a_at) / Fold change (Aza/veh), FGFR1OP (ProbeSet 11751329_s_at) / Fold change (ACY-1035/veh), FGFR1OP (ProbeSet 11751329_s_at) / Fold change (Aza/veh), VPS36 (ProbeSet 11739960_a_at) / Fold change (ACY-1035/veh), VPS36 (ProbeSet 11739960_a_at) / RFU SYPL1 (11715823_x_at) / Fold change /veh SYPL1 (11715823_x_at) / RFU IGFBP7 (11715501_s_at) / Fold change /veh IGFBP7 (11715501_s_at) / RFU REEP3 (11722064_at) / Fold change /veh REEP3 (11722064_at) / RFU IGLL1 (11728026_x_at) / Fold change /veh IGLL1 (11728026_x_at): dose or concentration left out as unconfirmed",
  "details": "MV-4-11 cells, 48 hours",
  "data": [
    {"compound": "Nc1ccc(-c2cccs2)cc1NC(=O)c1ccc2c(c1)cc(C1CC1)n2CCN1CCOCC1", "note": "[ACY-1035]", "values": [
      {"measurement": "RFU TMEM200A (11744735_a_at)", "value": 5.05, "unit": "RFU"}
    ]}
  ]
}
